On the set-up of data set [1]: method as in PMID 12236477. As to conditions: metabolites of omeprazole; cited from earlier work.
The nature of data set [2]: Pharmacokinetics of levosulpiride 50 mg alone and co-administered with omeprazole 40 mg in healthy human volunteers (Phase-1). The data set is classed as in vivo. Conditions: for AUC(0-inf) / AUC(0-t) / Cmax / Tmax / half-life: human, plasma, oral; for CL/F: healthy human volunteers (n = 20), mean ± SD. How it is done: (§1) The developed method was applied for evaluation of pharmacokinetics drug-drug interaction between LSP and OMP in healthy human volunteers (n = 20). Both the drugs were administered to the healthy volunteers, their blood samples were collected at specified time points and analyzed for the drug content, using the developed method. Written consent form was signed by all the volunteers and purpose of the study was explained to them. They were physically examined and medical history was recorded. Age of the volunteers was 20–28 years, with mean body mass index (BMI) of […]. Complete blood count, creatinine clearance, and liver function tests of all the healthy human volunteers were performed. All the volunteers were non-smokers and had no history of addiction. They were instructed not to take any medicines for two weeks before the study.
(§2) The study was conducted according to the “World Medical Association Declaration of Helsinki-Ethical principles of medical research involving human subjects” and its amendments. This study was approved by the ethical committee, Department of Pharmacy, University of Swabi, KP, Pakistan (Application number F.NO.UOS/2022/Pharm.02). It was an open-label, randomized, crossover, pharmacokinetic interaction study. The volunteers were divided into two groups of same size (n = 10) and the trial was conducted in two phases and two sequences, as follows;
Phase-1: First phase of the study consisted of two cycles with a wash out period of 14 days. During first phase of the study;
• Group-I: OMP 40 mg was administered twice a day for 6 days, and on the 7th day a single dose of LSP 50 mg was administered • Group-II: LSP 50 mg was administered alone as a single dose
Blood samples (3 mL) were collected at 0, 0.25, 0.5, 1, 2, 3, 4, 6, 8, 12, 24 and 36 hours. After 14 days washout period;
• Group-I: LSP 50 mg was administered alone • Group-II: OMP 40 mg, was administered twice a day for 6 days, on the 7th day LSP 50 mg was administered
(§3) The pharmacokinetic parameters were determined using non-compartmental analysis using PK-Summit (version 2.0.2). The plasma concentration of the drug (ng/mL) versus time (hour) profile was constructed for both drugs when administered alone and in combination with each another. The pharmacokinetic parameters like peak plasma concentration (Cmax), time to reach peak plasma concentration (Tmax), area under the concentration-time curve from zero time to time-t (AUC0-t) i.e. AUC0-36 for LSP and AUC0-12 for OMP, area under the concentration-time curve from zero time to infinity (AUC0-∞), elimination half-life (t1/2) and clearance (CL) were determined.
(§4) All the analysis was performed as per ICH guidelines using mean, standard deviation, and relative standard deviation. In the pharmacokinetic studies, the parameter values were compared using a t-test. The P-value (t-test) was calculated using the IBM SPPS statistics version 20. A p < 0.05 (95% confidence interval) was considered to be significant.

A short description of data set [3]: Stability of spiked human plasma samples at LQC and HQC at different temperatures. Conditions: plasma sample. Format: in vitro ADME. On the procedure: For preparation of plasma samples, blood was collected from human volunteer and centrifuged to separate the cellular components. Plasma was de-proteinated with acetonitrile (two times volume of plasma) and was used for spiking the analytes. A liquid-liquid extraction method, reported by Jin et al., [18], with slight modification was used for extraction of LSP and OMP. Known amount of LSP, OMP and IS were added to plasma (1 mL), and vortexed for 30 sec. 4 ml of extraction solvent (mixture of ethyl acetate and dichloromethane in 4:1 by volume) was added, vortexed for 2 min and centrifuged at 3000 × g for 10 min. The supernatant (organic) layer was separated and dried under a gentle stream of nitrogen gas. The dried residue was reconstituted with 0.2 mL of mobile phase and an aliquot (20 μL) was injected into the HPLC system. Blank and zero samples were also treated in the same manner.
The stability of the samples was also evaluated at the level of LQC and HQC of both the analytes. The LQC were 10 and 30 ng/mL while the HQC were 120 and 1200 ng/mL for LSP and OMP, respectively. […] The sample stored at –20 °C involved freeze-thawed cycles at a gap of 12 hours between the two-consecutive freeze-thawed cycles.
The stability of the samples was evaluated for short term and relatively long term (one month). […] The % recovery was calculated by comparing the % recovery (concentration recovered) with freshly prepared spiked samples.

The conditions of data set [4]: cited from earlier work.
Data set [5] in a line: Pharmacokinetics of omeprazole 40 mg alone and co-administered with levosulpiride 50 mg in healthy human volunteers (Phase-2). Format: in vivo. On the procedure:
as §1, §2
Phase-2 of the study was started after one month of the completion of Phase-1, as follows;
• Group-I: LSP 50 mg was given for 6 days twice a day and on the 7th day single dose of OMP 40 mg was administered • Group-II: OMP 40 mg was administered alone.
The blood was sampled at 0, 0.25, 0.5, 1, 2, 3, 4, 6, 8, and 12 hours.
After 14 days washout period, the pattern of drug administration was reversed as follows;
• Group-I: OMP 40 mg was administered alone. • Group-II: LSP 50 mg was given for 6 days twice a day and on the 7th day single dose of OMP 40 mg was administered
as §3, §4

Setting [6] is: levosulpiride with omeprazole versus alone, not significant.
[7] abbreviates: plasma, oral, omeprazole 40 mg alone, healthy human volunteers (n = 20), mean ± SD.

Read-outs that look alike come from different tables or passages of the source.

One may read the AUC(0-inf) as the area under the concentration-time curve extrapolated to infinity. As a reminder, the AUC(0-t) is exposure summed from dosing to a finite time, without extrapolation to infinity. As usually defined, the Cmax is the highest concentration seen after dosing. For orientation: Tmax means the time from dosing to the highest level. By half-life is commonly meant the time in which the quantity being followed falls by half. The term CL/F denotes the apparent clearance, not corrected for the fraction that reaches the circulation.

Regarding `COc1ccc2nc([S+]([O-])Cc3ncc(CO)c(OC)c3C)[nH]c2c1` (stereo not shown) [5-hydroxy omeprazole], the pharmacological activity result in data set [1] was “pharmacologically inactive”.

Consider `CCN1CCC[C@H]1CNC(=O)c1cc(S(N)(=O)=O)ccc1OC` [Levosulpiride], for which the area under the curve AUC(0-inf) in data set [2] was determined as 2210 ± 577 ng·h/mL; in data set [2] (50 mg) it was 1870 ± 627 ng·h/mL. In addition, the AUC(0-t) in data set [2] is 1770 ± 482 ng·h/mL; in data set [2] (50 mg), 1540 ± 473 ng·h/mL. The highest concentration (Cmax) was 118 ± 26.3 ng/mL in data set [2] and 109 ± 24.9 ng/mL in data set [2] (50 mg). The figures for the time to peak (Tmax) in data set [2] and in data set [2] (50 mg) were 3.71 ± 0.75 h and 3.8 ± 1.05 h, respectively. For the same compound, the half-life in data set [2] was 12.7 ± 4.76 h; in data set [2] (50 mg) it was 13.3 ± 2.64 h. The CL/F came to 35832 ± 8402 mL/h in data set [2] (levosulpiride 50 mg alone) and 30333 ± 6326 mL/h in data set [2] (levosulpiride 50 mg with omeprazole 40 mg). In data set [2] (setting [6]), the “increase of AUC0-t” value is given as 14.52%. Besides, in data set [2] (setting [6]), the “increase of AUC0-∞” value turned out to be 18.36%. Besides, the “increase of Cmax” value in data set [2] (setting [6]) was 8.79%. Also, the “reduction of CL” value in data set [2] (setting [6]) came out at 15.34%. For the same compound, the “% recovery (mean)” value in data set [3] (High QC (120 ng/ml), 15 °C for 12 hours (autosampler temperature)) stood at 99.67%; in data set [3] (High QC (120 ng/ml), -20 °C for 24 hours), 99.17%; in data set [3] (High QC (120 ng/ml), -20°C for one month, three freezed cycles) it was 98.33%; in data set [3] (High QC (120 ng/ml), RT for 24 hours) it was 98.00%; in data set [3] (Low QC (10ng/ml), 15 °C for 12 hours (autosampler temperature)), 98.36%; in data set [3] (Low QC (10ng/ml), -20 °C for 24 hours) it was 98.75%. Besides, the “% recovery (mean)” value was found to be 96.90% in data set [3] (Low QC (10ng/ml), -20°C for one month, three freezed cycles) and 96.80% in data set [3] (Low QC (10ng/ml), RT for 24 hours). Besides, the elimination half-life in data set [4] (depending upon route of administration, dosage form and dose) was 6 to 19 h; in data set [4] (orally administered LSP 25 mg), 12.0 h; in data set [4] (orally administered LSP 50 mg), 12.6 h; in data set [4] (orally administered LSP 100 mg) it was 14.3 h.

Turning to `COc1ccc2[nH]c([S+]([O-])Cc3ncc(C)c(OC)c3C)nc2c1` (stereo not shown) [Omeprazole], the AUC(0-inf) in data set [5] (human, plasma, oral) was 6490 ± 1610 ng·h/mL; in data set [5] (setting [7]), 6650 ± 1650 ng·h/mL. Moreover, the AUC(0-t) in data set [5] (human, plasma, oral) was determined as 5950 ± 1430 ng·h/mL; in data set [5] (plasma, oral, omeprazole 40 mg alone, AUC0-12, healthy human volunteers (n = 20), mean ± SD), 6090 ± 1480 ng·h/mL. In addition, the Tmax in data set [5] (human, plasma, oral) turned out to be 1.85 ± 0.83 h; in data set [5] (setting [7]), 1.95 ± 0.99 h. In addition, the half-life in data set [5] (human, plasma, oral) is 2.23 ± 1.03 h; in data set [5] (setting [7]), 2.3 ± 0.94 h. Besides, the apparent clearance CL/F came out at 7118.71 ± 2407.41 mL/h in data set [5] (omeprazole 40 mg alone, healthy human volunteers (n = 20), mean ± SD) and 7100.69 ± 2001.55 mL/h in data set [5] (omeprazole 40 mg with levosulpiride 50 mg, healthy human volunteers (n = 20), mean ± SD). Also, the Cmax in data set [5] (plasma, oral, omeprazole 40 mg single dose administered alone, healthy human volunteers (n = 20), mean ± SD) was found to be 1140 ± 262 ng/mL. In addition, the “% recovery (mean)” value in data set [3] (High QC (1200 ng/ml), 15 °C for 12 hours (autosampler temperature)) stood at 99.31%; in data set [3] (High QC (1200 ng/ml), -20 °C for 24 hours), 99.48%; in data set [3] (High QC (1200 ng/ml), -20°C for one month, three freezed cycles), 98.80%; in data set [3] (High QC (1200 ng/ml), RT for 24 hours), 98.35%; in data set [3] (Low QC (30 ng/ml), 15 °C for 12 hours (autosampler temperature)) it was 98.66%; in data set [3] (Low QC (30 ng/ml), -20 °C for 24 hours) it was 99.33%. For the same compound, the “% recovery (mean)” value in data set [3] (Low QC (30 ng/ml), -20°C for one month, three freezed cycles) stood at 98.73%; in data set [3] (Low QC (30 ng/ml), RT for 24 hours), 96.11%.

As to `COc1ccc2nc(S(=O)(=O)Cc3ncc(C)c(OC)c3C)[nH]c2c1` [omeprazole sulfone], in data set [1], the pharmacological activity entry was “pharmacologically inactive”.
